Experimental data reported in ChEMBL document CHEMBL4033618, “Covalently linked kanamycin - Ciprofloxacin hybrid antibiotics as a tool to fight bacterial resistance” (Bioorg Med Chem, 2017).
Converted amounts (≈) assume the structure as drawn. The source made the active and inactive calls. The calls are words filed in the database; no cut-off is given here.

Experiments:
[1] = Inhibition of Escherichia coli topoisomerase 4 using supercoiled pBR322 DNA as substrate by agarose gel electrophorosis method
Escherichia coli [2] = assay: Antibacterial activity against kanamycin-resistant Escherichia coli AG100A by double microdilution method; type: functional
Bacillus spizizenii [3] = assay: Antibacterial activity against Bacillus subtilis ATCC 6633 in 15th subculture in presence of equimolar concentration of kanamycin A by double microdilution method; type: functional
[4] = system: Staphylococcus epidermidis; assay: Antibacterial activity against aminoglycosides-susceptible Staphylococcus epidermidis by double microdilution method; type: functional
Bacillus subtilis = assay: Antibacterial activity against aminoglycosides-susceptible Bacillus subtilis by double microdilution method; type: functional
[5] = Inhibition of Escherichia coli DNA gyrase using relaxed pBR322 DNA as substrate by agarose gel electrophorosis method
Escherichia coli [6] = assay: Inhibition of protein translation in Escherichia coli S30 cell extract using circular DNA with pBESTluc after 60 mins; type: functional
Escherichia coli [7] = assay: Ratio of MIC for aminoglycosides-resistant Escherichia coli BL21 harboring pSF815 encode for bifunctional AAC(6')/APH(2\") resistance enzyme to MIC for Escherichia coli BL21; type: functional
Escherichia coli [8] = assay: Resistance index, ratio of MIC for Escherichia coli ATCC 35218 in 15th subculture to MIC for Escherichia coli ATCC 35218 in first subculture; type: functional
Escherichia coli [9] = assay: Antibacterial activity against Escherichia coli XL1 blue by double microdilution method; type: functional
Escherichia coli [10] = assay: Ratio of MIC for aminoglycosides-resistant Escherichia coli BL21 harboring pETSACG1 encode for APH(3')-3a resistance enzyme to MIC for Escherichia coli BL21; type: functional
Escherichia coli [11] = assay: Antibacterial activity against aminoglycosides-resistant Escherichia coli BL21 harboring pET11d encode for APH(3')-2b resistance enzyme by double microdilution method; type: functional
Escherichia coli [12] = assay: Antibacterial activity against Escherichia coli XL1 blue harboring pET9d encode for APH(3')-1a resistance enzyme by double microdilution method; type: functional
Escherichia coli [13] = assay: Antibacterial activity against aminoglycosides-susceptible Escherichia coli 25922 by double microdilution method; type: functional; conditions: ATCC 25922
Bacillus spizizenii [14] = assay: Resistance index, ratio of MIC for Bacillus subtilis ATCC 6633 in 15th subculture to MIC for Bacillus subtilis ATCC 6633 in first subculture; type: functional
Escherichia coli [15] = assay: Ratio of MIC for aminoglycosides-resistant Escherichia coli BL21 harboring pET11d encode for APH(3')-2b resistance enzyme to MIC for Escherichia coli BL21; type: functional
Escherichia coli [16] = assay: Antibacterial activity against Escherichia coli BL21 by double microdilution method; type: functional
Escherichia coli [17] = assay: Antibacterial activity against kanamycin-resistant Escherichia coli AG100B by double microdilution method; type: functional
Escherichia coli [18] = assay: Antibacterial activity against aminoglycosides-susceptible Escherichia coli R477-100 by double microdilution method; type: functional
Escherichia coli [19] = assay: Antibacterial activity against aminoglycosides-resistant Escherichia coli BL21 harboring pSF815 encode for bifunctional AAC(6')/APH(2\") resistance enzyme by double microdilution method; type: functional
Escherichia coli [20] = assay: Ratio of MIC for Escherichia coli XL1 blue harboring pET9d encode for APH(3')-1a resistance enzyme to MIC for Escherichia coli XL1 blue; type: functional
Escherichia coli [21] = assay: Antibacterial activity against aminoglycosides-resistant Escherichia coli BL21 harboring pETSACG1 encode for APH(3')-3a resistance enzyme by double microdilution method; type: functional
[22] = Acute toxicity in iv dosed mouse at pH 6.6 administered for 4 days; type: organism-based; conditions: in vivo
Escherichia coli [23] = assay: Antibacterial activity against Escherichia coli ATCC 35218 in 15th subculture in presence of equimolar concentration of ciprofloxacin by double microdilution method; type: functional
Bacillus spizizenii [24] = assay: Antibacterial activity against Bacillus subtilis ATCC 6633 in 15th subculture in presence of equimolar concentration of ciprofloxacin by double microdilution method; type: functional
[25] = Escherichia coli, 1 h, read-out: IC50

Row | Structure (SMILES) | IC50 ([1]; read-out: IC50) | MIC (Escherichia coli [2]) | MIC [4] | MIC (Bacillus subtilis) | IC50 ([5]; read-out: IC50) | Ratio (Escherichia coli [7]) | Ratio (Escherichia coli [8]) | MIC (Escherichia coli [9]) | Ratio (Escherichia coli [10]) | MIC (Escherichia coli [11]) | MIC (Escherichia coli [12]) | MIC (Escherichia coli [13]) | Ratio (Bacillus spizizenii [14]) | Ratio (Escherichia coli [15]) | MIC (Escherichia coli [16]) | MIC (Escherichia coli [17]) | MIC (Escherichia coli [18]) | MIC (Escherichia coli [19]) | IC50 (Escherichia coli [6]; [25]) | Ratio (Escherichia coli [20]) | further results
1 | O=C(O)c1cn(C2CC2)c2cc(N3CCNCC3)c(F)cc2c1=O [CIPROFLOXACIN] | 8.6 µM | < 0.005 µg/mL | 0.094 µg/mL (≈ 0.284 µM) | 0.02 µg/mL (≈ 0.0604 µM) | 1.3 µM | – | – | – | – | – | – | – | – | – | – | – | – | – | – | – | Activity (Bacillus spizizenii [3]): Active; IC50 (Escherichia coli [6]): Not Active
2 | NC[C@H]1O[C@H](O[C@H]2[C@H](O)[C@@H](O[C@H]3O[C@H](CO)[C@@H](O)[C@H](N)[C@H]3O)[C@H](NCc3cn(Cc4ccc(CN5CCN(c6cc7c(cc6F)c(=O)c(C(=O)O)cn7C6CC6)CC5)cc4)nn3)C[C@@H]2N)[C@H](O)[C@@H](O)[C@@H]1O | 7.9 µM | 0.28 µg/mL (≈ 0.28 µM) | 3 µg/mL (≈ 3 µM) | 3 µg/mL (≈ 3 µM) | 2.6 µM | 1 | 4 | 3 µg/mL (≈ 3 µM) | 1 | 0.1 µg/mL (≈ 0.1 µM) | 3 µg/mL (≈ 3 µM) | 6 µg/mL (≈ 6.01 µM) | 4 | 1 | 0.8 µg/mL (≈ 0.801 µM) | 12 µg/mL (≈ 12 µM) | 6 µg/mL (≈ 6.01 µM) | 0.1 µg/mL (≈ 0.1 µM) | 10.7 µM | 1 | MIC (Escherichia coli [21]): 0.1 µg/mL (≈ 0.1 µM)
3 | NC[C@H]1O[C@H](O[C@H]2[C@H](O)[C@@H](O[C@H]3O[C@H](CO)[C@@H](O)[C@H](N)[C@H]3O)[C@H](NCc3cn(CC(O)CN4CCN(c5cc6c(cc5F)c(=O)c(C(=O)O)cn6C5CC5)CC4)nn3)C[C@@H]2N)[C@H](O)[C@@H](O)[C@@H]1O (stereo not given in full) | 19.8 µM | 0.37 µg/mL (≈ 0.388 µM) | 6 µg/mL (≈ 6.3 µM) | 1.5 µg/mL (≈ 1.57 µM) | 5.9 µM | 1.5 | 1.33 | 3 µg/mL (≈ 3.15 µM) | 1.5 | 0.3 µg/mL (≈ 0.315 µM) | 3 µg/mL (≈ 3.15 µM) | 1.5 µg/mL (≈ 1.57 µM) | 2 | 1.5 | 0.09 µg/mL (≈ 0.0944 µM) | 12 µg/mL (≈ 12.6 µM) | 3 µg/mL (≈ 3.15 µM) | 0.3 µg/mL (≈ 0.315 µM) | 1.27 µM | 1 | MIC (Escherichia coli [21]): 0.3 µg/mL (≈ 0.315 µM)
4 | NCC[C@H](O)C(=O)N[C@@H]1C[C@H](N)[C@@H](O[C@H]2O[C@H](CN)[C@@H](O)[C@H](O)[C@H]2O)[C@H](O)[C@H]1O[C@H]1O[C@H](CO)[C@@H](O)[C@H](N)[C@H]1O [AMIKACIN] | – | – | – | – | – | – | – | – | – | – | – | – | – | – | – | – | – | – | – | – | LD50 at 96 h [22]: 300 mg/kg
5 | NC[C@H]1O[C@H](O[C@H]2[C@H](O)[C@@H](O[C@H]3O[C@H](CO)[C@@H](O)[C@H](N)[C@H]3O)[C@H](N)C[C@@H]2N)[C@H](O)[C@@H](O)[C@@H]1O [KANAMYCIN] | – | 96 µg/mL (≈ 198 µM) | 1.5 µg/mL (≈ 3.1 µM) | 1.5 µg/mL (≈ 3.1 µM) | – | >32 | 15 | 3 µg/mL (≈ 6.19 µM) | >32 | > 384 µg/mL | > 384 µg/mL | 48 µg/mL (≈ 99.1 µM) | 15 | >32 | 12 µg/mL (≈ 24.8 µM) | 384 µg/mL (≈ 793 µM) | 12 µg/mL (≈ 24.8 µM) | > 384 µg/mL | 0.03 µM | >128 | Activity (Escherichia coli [23]): inactive; LD50 at 96 h [22]: 280 mg/kg; IC50 [1]: Not Active; Activity (Bacillus spizizenii [24]): Active; IC50 [5]: Not Active; MIC (Escherichia coli [21]): > 384 µg/mL
6 | NC[C@@H]1O[C@H](O[C@H]2[C@@H](O)[C@H](O[C@@H]3[C@@H](O)[C@H](N)C[C@H](N)[C@H]3O[C@H]3O[C@H](CN)[C@@H](O)[C@H](O)[C@H]3N)O[C@@H]2CO)[C@H](N)[C@@H](O)[C@@H]1O [FRAMYCETIN] | – | – | – | – | – | – | – | – | – | – | – | – | – | – | – | – | – | – | – | – | LD50 at 96 h [22]: 24 mg/kg
